The values that follow come from paper PMC12189931, “In Vitro Effects of Some Antibiotics on Purified β-Glucosidases from Rat Liver and Kidney Tissues” (Antibiotics, 2025).

Several values for one entry are separate records, joined by “and”; a condition that tells them apart may be missing. Identical values can stand only once. Entries after “also recorded” stand apart in the source; their conditions may differ.

As a reminder, the Ki is a measure of affinity in units of concentration, obtained from inhibition or displacement. Broadly, the IC50 is the concentration at which inhibition is half-maximal.

In test [1] the test system is glutathione reductase (GR) purified from mouse kidney tissue. The arrangement: method as in PMID 32196862. Particulars: cited from earlier work.
For test [2], the system named is glutathione reductase (GR) purified from human erythrocytes. The arrangement: method as in PMID 15895687. The settings on record: cited from earlier work.
For test [3], the system named is 6-phosphogluconate dehydrogenase (6PGD) purified from rat lung tissue. The arrangement: method as in PMID 26758606. Particulars: cited from earlier work.
In test [4] the test system is glutathione reductase (GR) purified from rat lung tissue. The arrangement: method as in PMID 26758606. The settings on record: cited from earlier work.
For test [5], the system named is glutathione reductase (GR) purified from mouse liver. The arrangement: method as in PMID 32196862. Particulars: cited from earlier work.
In test [6] the test system is glucose-6-phosphate dehydrogenase (G6PD) purified from rat lung tissue. Also on record: method as in PMID 26758606. The settings on record: cited from earlier work.
Another test has as its target T1, rat kidney BGL (Rattus norvegicus, UniProt A0A0G2JVP8).
T1 construct: For this purpose, BGLs were purified from rat liver and kidney tissues; from tissue; host or cells: rat kidney
T1 sequence (A0A0G2JVP8 1-469): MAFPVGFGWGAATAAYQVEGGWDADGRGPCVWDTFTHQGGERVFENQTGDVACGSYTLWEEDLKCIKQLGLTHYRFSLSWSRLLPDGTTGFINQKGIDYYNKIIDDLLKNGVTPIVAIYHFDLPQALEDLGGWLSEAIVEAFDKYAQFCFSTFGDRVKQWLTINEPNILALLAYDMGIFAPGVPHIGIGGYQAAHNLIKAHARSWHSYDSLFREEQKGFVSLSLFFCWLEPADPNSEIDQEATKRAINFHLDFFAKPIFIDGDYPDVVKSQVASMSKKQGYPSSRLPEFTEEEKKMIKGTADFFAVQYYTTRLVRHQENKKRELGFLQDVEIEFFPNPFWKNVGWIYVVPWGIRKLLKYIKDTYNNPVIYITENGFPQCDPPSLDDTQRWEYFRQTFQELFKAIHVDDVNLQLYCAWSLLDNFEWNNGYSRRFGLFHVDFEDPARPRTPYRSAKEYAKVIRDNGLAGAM
Description: In vitro inhibition of β-glucosidase purified from rat kidney (p-NPG substrate). Type of test: biochemical. The settings on record: for effect on rat kidney BGL activity: tested concentration ranges 5–250 mM depending on antibiotic; for Ki / inhibition type / IC50: Kidney BGL; for Ki: Lineweaver–Burk plots; for inhibition type: Lineweaver–Burk, NI: No observed inhibition; for IC50: p-NPG 1.75 mM, GraphPad Prism. The method, then:
(§1) Rat liver and kidney BGL activities were determined spectrophotometrically using a ThermoFisher Scientific Multiskan™ FC microplate (Thermo Fisher Scientific, Waltham, MA, USA). p-NPG dissolved in 50 mM of pH 5.5 Na–Ac buffer was used as the substrate. In this method, enzyme activity was determined by photometrically measuring the determination of p-nitrophenol (p-NP) released in the presence of BGLs spectrophotometrically at 405 nm. Calculations were made with the standard curve of p-NP (Cat. No. 241326, Sigma) prepared at 405 nm. One enzyme unit (EU) was defined as the amount of μmol p-nitrophenol released per minute in the reaction medium under the specified experimental conditions.
(§2) The half-maximal inhibitory concentration (IC50) of antibiotics was determined using a constant concentration of p-NPG of 1.75 mM. At least ten different concentration ranges of each antibiotic were tested to evaluate the in vitro effects of ampicillin (5–250 mM), amoxicillin–clavulanate (5–70 mM), cefuroxime (5–150 mM), cefazolin sodium (10–165 mM), ceftriaxone (10–160 mM), and gentamicin (5–50 mM). Enzyme activity was measured in the presence of different antibiotic concentrations, and BGL activity in the medium without antibiotics, which was accepted as the control group, was determined as 100% reference value. Enzyme activity results were expressed as % activity and the inhibitory concentration (IC50) that reduced enzyme activity by 50% was calculated using GraphPad Prism software. All experiments were performed in three replicates for each antibiotic concentration.
(§3) Lineweaver–Burk double-reciprocal plots were used to determine the inhibitory effect of antibiotics and the inhibition mechanisms. The curve obtained when there was no inhibitor in the reaction medium was accepted as the control (I0); the intersection points of the control curve with the lines drawn in the presence of the inhibitor at two different concentrations were analyzed. In line with these intersection points, the relevant inhibition types were determined, and the inhibitory constants (Ki) of the inhibitors were calculated.

Another test concerns the target T2, rat liver BGL (Rattus norvegicus, UniProt A0A0G2JVP8).
T2 construct: For this purpose, BGLs were purified from rat liver and kidney tissues; from tissue; host or cells: rat liver
T2 sequence (A0A0G2JVP8 1-469): T1 sequence (A0A0G2JVP8 1-469)
Description: In vitro inhibition of β-glucosidase purified from rat liver (p-NPG substrate). The class given is biochemical. The settings on record: for effect on rat liver BGL activity: tested concentration ranges 5–250 mM depending on antibiotic. Here is the method:
as §1, §2, §3

Test [7] has as its target glucose-6-phosphate dehydrogenase (G6PD) purified from human erythrocytes. The arrangement: method as in PMID 10712835. The settings on record: cited from earlier work; for IC50: G6PD purified from human erythrocytes.
Test [8] relates to G6PD purified from sheep erythrocytes. The arrangement: method as in PMID 12530481. The settings on record: cited from earlier work.

Regarding `CNC(C)C1CCC(N)C(OC2C(N)CC(N)C(OC3OCC(C)(O)C(NC)C3O)C2O)O1` (centres unmarked) [Gentamicin], the “inhibition / inhibition type” value in test [1] is reported as “did not inhibit”; in test [5], “noncompetitive”. For the same compound, the “effect on enzyme activity” value in test [2] was “increase the activity”. Moreover, the inhibition type entry in [3], in test [4] and in test [6] was “competitively” throughout. The figures for the “effect on rat kidney BGL activity” value at rat kidney BGL and on rat kidney BGL (listed as gentamicin) were “did not reduce kidney BGL activity” and “did not significantly inhibit; also recorded: did not exhibit inhibitory effects; also recorded: no effect on enzyme activity”, respectively. The “effect on rat liver BGL activity” value on rat liver BGL (listed as gentamicin) is “did not show a significant inhibitory effect; also recorded: increased enzyme activity; also recorded: no inhibitory effect”.

For `CO/N=C(\C(=O)N[C@@H]1C(=O)N2C(C(=O)O)=C(COC(N)=O)CS[C@H]12)c1ccco1` [Cefuroxime], the inhibition type entry in test [3] was “noncompetitively”; in test [4] it was “noncompetitively”; in [6], “noncompetitively”; on rat kidney BGL, “Uncompetitive”. On rat kidney BGL, this compound came in with a Ki of 18.7 ± 12.7 mM. The same compound came in with an IC50 at rat kidney BGL of 76.9 mM. On rat liver BGL, the “effect on rat liver BGL activity” value is given as “did not show a significant inhibitory effect”.

With `CO/N=C(\C(=O)N[C@@H]1C(=O)N2C(C(=O)O)=C(COC(N)=O)CS[C@H]12)c1ccco1` [sodium cefuroxime], the IC50 in test [7] is 6.7 mM.

In the case of `CO/N=C(\C(=O)N[C@@H]1C(=O)N2C(C(=O)O)=C(CSc3nc(=O)c(=O)[nH]n3C)CS[C@H]12)c1csc(N)n1` [Ceftriaxone], the “effect on rat kidney BGL activity” value on rat kidney BGL is given as “did not reduce kidney BGL activity; also recorded: did not significantly inhibit; also recorded: did not exhibit inhibitory effects”. Moreover, the “effect on rat liver BGL activity” value on rat liver BGL was “did not show a significant inhibitory effect”.

Turning to `CC1(C)S[C@@H]2[C@H](NC(=O)[C@H](N)c3ccc(O)cc3)C(=O)N2[C@H]1C(=O)O` [amoxicillin], in [1], the 50% inhibitory concentration (IC50) is 86 mM and the “inhibition / inhibition type” value is “noncompetitive”. Besides, the “inhibition / inhibition type” value in [5] is given as “competitive”.

On to `Cc1nnc(SCC2=C(C(=O)O)N3C(=O)[C@@H](NC(=O)Cn4cnnn4)[C@H]3SC2)s1` [Cefazolin sodium], for which the “inhibition / inhibition type” value in test [1] and in test [5] was “did not inhibit” in each case. Moreover, the figures for the inhibition type entry (in [7] (human erythrocyte G6PD); against rat kidney BGL; against rat kidney BGL (listed as cefazolin sodium)) were “noncompetitive”, “Noncompetitive” and “noncompetitively”, respectively. The compound also registered an IC50 against rat kidney BGL of 98.8 mM. Besides, the “effect on rat liver BGL activity” value at rat liver BGL is listed as “did not show a significant inhibitory effect”.

In the case of gentamicin sulfate, in [8], the inhibition type result is “noncompetitively”. Further, in test [7], the IC50 was 12 mM.

Regarding `CC1(C)S[C@@H]2[C@H](NC(=O)[C@H](N)c3ccccc3)C(=O)N2[C@H]1C(=O)O` [Ampicillin], the inhibitory constant (Ki) came out at 28.4 ± 6.35 mM on rat kidney BGL and 14.3 ± 3.35 mM at rat liver BGL (Liver BGL, Lineweaver–Burk plots). Further, the “inhibition type” value on rat kidney BGL is on record as “noncompetitively; also recorded: Noncompetitive”; against rat liver BGL (Liver BGL, Lineweaver–Burk, NI: No observed inhibition), “competitively; also recorded: Competitive”. Also, the IC50 at rat kidney BGL is 25 mM and 25.3 mM; at rat liver BGL (Liver BGL, p-NPG 1.75 mM, GraphPad Prism) it was 70 mM and 69.6 mM. Further, the “loss in liver BGL activity” value on rat liver BGL (40 mM ampicillin in the medium) is 10%.
